Several values for one entry are separate records, joined by “and”; a condition that tells them apart may be missing. Equal values may be shown once. Activity calls are given as the source filed them.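 The calls were made as follows: active = compounds giving half or more protection of infected cells from virus-caused growth loss, again on retest; inactive = the rest.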
System: CEM cells HIV-1 protection, formazan growth assay
Assay: NCI AIDS Antiviral Assay
Details: for IC50: measured here: growth of uninfected CEM cells
Outline: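 Protection of CEM cells against HIV-1 was scored from cell growth (soluble formazan) across five concentrations, with parallel uninfected cells. Lack of protection may reflect toxicity.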

SMILES	EC50 [µM]	IC50	outcome
COC(=O)C1CCC[C@H]2C(CO)=C(C)C(=O)[C@@H]12 (stereo partly drawn)	182	> 200 µM	
C[C@H]1N(O)CC2OC(n3ccc(=O)[nH]c3=O)C(O)C21O (mixture of isomers)	> 200	> 200 µM	
CC(CCCOC(c1ccccc1)(c1ccccc1)c1ccccc1)OC(=O)Nc1ccccc1 (stereo not drawn)	> 28.8	> 28.8 µM	
Nn1c(CNc2ccc(-c3nnc(Nc4ccc(Cl)cc4)n3N)cc2)nnc1Nc1ccc(Cl)cc1	> 200	67.6 µM	
Cc1cc(N(CCC#N)S(=O)(=O)c2ccccc2)ccc1/C=C1\N=C(c2ccc(Cl)cc2)OC1=O	> 257	> 257 µM	
CN(N)c1nc(N)c(C#N)c(C#N)c1C#N	> 100	> 100 µM	
CCN(C(=O)N[C@@H](C)C(=O)N[C@@H](Cc1ccccc1)C(=O)OC)c1ccccc1			inactive
Cc1ccc(C2(O)c3ccccc3N=NN2C)cc1 (stereo not drawn)	> 269	105 µM	
CCC(c1ccc(N(C)C)cc1)C1NC(=S)NC1=O (stereo not drawn)	> 200	25.7 µM	
CC(=O)Nc1cc(C)ccc1Cl	> 1350	> 1350 µM	
CC(=S)N/C=C/c1c(C(=O)O)cc([N+](=O)[O-])cc1[N+](=O)[O-]			inactive
O=C(O)CCN(CCC(=O)O)c1ccc(/C=C2\SC(=S)NC2=O)cc1	> 200	170 µM	
CN1C(=O)OC2OC(C)(c3ccc(S(=O)(=O)c4ccccc4)cc3)C(=O)CC21 (stereo not drawn)	> 123	> 123 µM	
Cc1cc(NS(=O)(=O)c2ccc(NC(=O)c3cccc4c(N)c5ccccc5nc34)cc2)no1	> 93.3	43.7 µM	
C=C1CN(S(=O)(=O)c2ccc(C)cc2)CCN(Cc2ccccc2)CCN(S(=O)(=O)c2ccc(C)cc2)C1	> 200	> 200 µM	
COc1ccccc1N1CCN(CCc2c[nH]c3cc4c(cc23)OCO4)CC1	> 132	7.41 µM	
O=[N+]([O-])c1cc(Br)cc2cc(Cl)cnc12			inactive

SMILES	EC50 [µM]	IC50	outcome
CC(Oc1ccc(OCC2CCCCC2)cc1)C(N)=O (stereo not drawn)	> 36.3	15.1 µM	
CN1CCOC1c1ccccc1O (stereo not drawn)	> 200	> 200 µM	
O=C(O)[C@@H]1CSC(C(O)C(O)C(O)C(O)CO)N1 (stereo partly drawn)	> 200	> 200 µM	
CN(C)CCOC1(Cc2ccc(Cl)cc2Cl)CCC(C(C)(C)C)CC1 (stereo not drawn)	> 200	2.14 µM and 3.72 µM	
Cc1c(Cl)c(=O)oc2cc(OCC(O)COC(C)C)ccc12 (stereo not drawn)			inactive
CC(=O)c1sc2c(c1OC(=O)c1ccccc1)c(=O)n(-c1ccccc1)c(=S)n2-c1ccccc1	> 2	0.0631 µM	
c1ccc(SCN2CCN(CSc3ccccc3)CC2)cc1	> 30.2	5.75 µM	
Oc1ccc(-c2nc(-c3cccnc3)c(-c3ccc(F)cc3)[nH]2)cc1	> 200	30.9 µM	
Oc1ccc(O)c([P+](c2ccccc2)(c2ccccc2)c2ccccc2)c1	> 200	30.2 µM	
CN(C)CCC(=O)/C=C\c1ccccc1			inactive
CC1=NN(C(=O)c2ccc(Cl)cc2)C(=O)/C1=C/c1cccc([N+](=O)[O-])c1	> 19.5	> 19.5 µM	
O=C(Nc1nc2ccccc2n1Cc1ccc(Cl)cc1)C(=O)NC12CC3CC(CC(C3)C1)C2	> 21.4	> 21.4 µM	
Cc1c(CN2CCN(C)CC2)c(O)c2c(=O)c3c(O)c(CN4CCN(C)CC4)c(O)c4c5c(O)c(CN6CCN(C)CC6)c(O)c6c(=O)c7c(O)c(CN8CCN(C)CC8)c(C)c8c1c2c(c34)c(c78)c65	> 10.2	> 10.2 µM	
COc1c(OC(C)C)c(OC(C)C)c2oc(=O)n3c2c1C(c1ccccc1-n1c(C)ccc1C)C=C3 (stereo not drawn)	> 200	> 200 µM	
CC(=O)NS(=O)(=O)c1ccc(N=Cc2ccc3c(c2)OCO3)cc1	> 200	> 200 µM	
CC(C)=CCNc1ncnc2c1ncn2C1OC(CO)C(O)C1O (stereo not drawn)	> 200	15.5 µM	
COc1cc(/C=C2\C(=O)N(Cc3ccccc3)C(c3ccccc3)S2(=O)=O)cc(OC)c1OC (stereo not drawn)	> 20	3.31 µM	
